Assay results: patent US20230172189A1, “Methods for Extending the Shelf-life of Stored Donor Blood and/or Red Blood Cells and Treated Red Blood Cell Compositions Produced Thereby” (Ohio University, priority 2020, published 2023)

Assays:
[1] = test system: RBCs; assay: Hemolysis of RBCs during lipid exchange (UV-Vis absorbance at 541 nm); type: cell-based; details: for hemolysis of RBCs during lipid exchange: exogenous lipid loaded into MαCD, one hour incubation
Method: The release of hemoglobin from the RBCs is considered as a sign of disrupting the cell membrane and consequently extracting the inner leaflet.
The hemolysis of RBCs during lipid exchange was measured using UV-Vis spectroscopy.
Presence of hemoglobin in the exchange solution is believed to be a disruption of the RBCs, lead to extracting the inner leaflet of the membrane. To monitor the amount of hemolysis after the exchange, the cells were centrifuged at 750×g for 5 minutes, 200 μL of the supernatant was collected, and its absorbance at 541 nm was measured using a plate reader. RBCs suspended in DPBS and water for 1 hour, at the same hematocrit concentrations as the ones used for exchange experiments, were used as negative and positive controls for the hemolysis. Both controls were also centrifuged at 750×g for 5 minutes.

[2] = test system: RBCs; assay: Confocal microscopy of RBCs after exchange with a fluorescent lipid; type: cell-based; details: 19:1 POPS:NBD-PE, one hour incubation, with or without MαCD
Method: To confirm that MαCD mediates the lipid exchange and that the lipids are exchanged with the outer leaflet only, confocal microscopy was performed on the RBCs after the exchange. A mixture of POPS and 1,2-dipalmitoyl-sn-glycero-3-phosphoethanolamine-N-(7-nitro-2-1,3-benzoxadiazol-4-yl) (NBD-PE) with a molar ratio 19:1 POPS:NBD-PE was used. RBCs are incubated for one hour with the lipid mixture without MαCD (FIG. 2A) or with the lipid mixture loaded into MαCD (FIG. 2B).
Delivering of the phospholipids to the membrane was studied using fluorescence. A quenching agent was used to diminish the fluorescence to examine whether the lipids were delivered to the outer or inner leaflet. Organic solutions of a fluorescent phospholipid (NBD-PE) and POPS were mixed to a molar ratio of 1:19 NBD-PE:POPS. The other steps prior to the exchange experiment were as mentioned before. After the exchange, the cells were centrifuged at 750×g for 5 minutes, the precipitated RBCs were collected, re-suspended in 10% sucrose in DPBS, loaded onto a glass slide, and imaged using a confocal microscope. Sodium dithionite solution was made to a concentration of 50 mM and was added to an aliquot of the exchanged RBCs 1 minute prior to loading onto glass slides and imaging.

Compound | hemolysis of RBCs during lipid exchange [1] | capability of mediating the exchange process ([1]; two MαCD concentrations tested during optimisation) | mediation of lipid exchange with RBC outer leaflet [2]
CCCCCCCC/C=C\CCCCCCCC(=O)O[C@H](COC(=O)CCCCCCCCCCCCCCC)COP(=O)(O)OC[C@H](N)C(=O)O [POPS, 1-palmitoyl-2-oleoyl-sn-glycero-3-phospho-L-serine] | lowest hemolysis |  | 
CCCCCCCC/C=C\CCCCCCCC(=O)OC(COC(=O)CCCCCCCCCCCCCCC)COP(=O)([O-])OCC[N+](C)(C)C (stereo not shown) [POPC, 1-palmitoyl-2-oleoyl-glycero-3-phosphocholine] | lowest hemolysis |  | 
methyl-α-cyclodextrin [MαCD] |  | both concentrations were capable of mediating the exchange process | lipid exchange only occurs in the presence of MαCD
